# Data as given in patent publication US9839639B2, “Neprilysin inhibitors” (THERAVANCE BIOPHARMA R&D IP, LLC, priority 2014, dated 2017).
# Molecular target: T1, human NEP (Homo sapiens, UniProt P08473)
# T1 construct: purchased R&D Systems, Minneapolis, Minn; 1182-ZN
# Experiment: In vitro enzyme inhibition assay, inhibitor potency at human NEP
# Type: biochemical
# Conditions: recombinant human NEP, fluorogenic peptide substrate 10 μM, 37° C.; values given as ranges
# Experimental: The inhibitory activities of compounds at human and rat neprilysin (EC 3.4.24.11; NEP) and human angiotensin converting enzyme (ACE) were determined using in vitro assays as described below.
# Recombinant human NEP and recombinant human ACE were obtained commercially (R&D Systems, Minneapolis, Minn., catalog numbers 1182-ZN and 929-ZN, respectively). The fluorogenic peptide substrate Mca-D-Arg-Arg-Leu-Dap-(Dnp)-OH (Medeiros et al. (1997) Braz. J. Med. Biol. Res. 30:1157-62; Anaspec, San Jose, Calif.) and Abz-Phe-Arg-Lys(Dnp)-Pro-OH (Araujo et al. (2000) Biochemistry 39:8519-8525; Bachem, Torrance, Calif.) were used in the NEP and ACE assays respectively.
# The assays were performed in 384-well white opaque plates at 37° C. using the fluorogenic peptide substrates at a concentration of 10 μM in Assay Buffer (NEP: 50 mM HEPES, pH 7.5, 100 mM NaCl, 0.01% polyethylene glycol sorbitan monolaurate (Tween-20), 10 μM ZnSO4; ACE: 50 mM HEPES, pH 7.5, 100 mM NaCl, 0.01% Tween-20, 1 μM ZnSO4).
# Test compounds were assayed over the range of concentrations from 10 μM to 20 pM. Test compounds were added to the enzymes and incubated for 30 minute at 37° C. prior to initiating the reaction by the addition of substrate. Reactions were terminated after 20 minutes of incubation at 37° C. by the addition of glacial acetic acid to a final concentration of 3.6% (v/v).
# Plates were read on a fluorometer with excitation and emission wavelengths set to 320 nm and 405 nm, respectively. Inhibition constants were obtained by nonlinear regression of the data using the equation (GraphPad Software, Inc., San Diego, Calif.): v=v0/[1+(I/K′)] where v is the reaction rate, v0 is the uninhibited reaction rate, I is the inhibitor concentration and K′ is the apparent inhibition constant.
# Compounds of the invention were tested in this assay and found to have pKi values at human NEP as follows.
# T1 sequence (P08473 52-750 limits assumed): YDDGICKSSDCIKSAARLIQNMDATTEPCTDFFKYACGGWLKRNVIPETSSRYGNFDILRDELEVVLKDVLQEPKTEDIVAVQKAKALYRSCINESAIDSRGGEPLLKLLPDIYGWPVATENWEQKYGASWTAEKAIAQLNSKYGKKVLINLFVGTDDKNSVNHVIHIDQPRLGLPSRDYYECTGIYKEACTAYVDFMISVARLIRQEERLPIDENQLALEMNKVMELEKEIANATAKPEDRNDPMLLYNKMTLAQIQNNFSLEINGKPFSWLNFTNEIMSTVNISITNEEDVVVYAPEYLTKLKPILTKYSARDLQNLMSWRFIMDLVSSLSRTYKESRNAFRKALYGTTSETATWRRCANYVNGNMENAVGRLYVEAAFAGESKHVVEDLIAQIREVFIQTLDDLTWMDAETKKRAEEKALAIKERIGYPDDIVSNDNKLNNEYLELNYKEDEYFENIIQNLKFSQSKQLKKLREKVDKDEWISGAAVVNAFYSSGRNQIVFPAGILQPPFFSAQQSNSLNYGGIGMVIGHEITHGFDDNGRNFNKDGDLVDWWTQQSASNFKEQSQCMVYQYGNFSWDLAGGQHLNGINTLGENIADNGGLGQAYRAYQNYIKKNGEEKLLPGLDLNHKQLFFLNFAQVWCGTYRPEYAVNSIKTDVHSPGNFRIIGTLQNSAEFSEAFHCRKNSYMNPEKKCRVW
SMILES,Ki,pKi
"CC(N)(C[C@@H](Cc1ccc(-c2cc(Cl)ccc2F)cc1)NC(=O)c1cnn[nH]1)C(=O)O (single isomer, unassigned) [Example 1a]",3.98 to 10 nM,–
"CC(C#N)(C[C@@H](Cc1ccc(-c2cc(Cl)ccc2F)cc1)NC(=O)c1cnn[nH]1)C(=O)O (single isomer, unassigned) [Example 12a]",39.8 to 100 nM,–
"CC(C#N)(C[C@@H](Cc1ccc(-c2cc(Cl)ccc2F)cc1)NC(=O)c1cnn[nH]1)C(=O)O (single isomer, unassigned) [Example 12b]",≤ 1 nM,–
"CCC(CO)(C[C@@H](Cc1ccc(-c2cc(Cl)ccc2F)cc1)NC(=O)c1cnn[nH]1)C(=O)O (single isomer, unassigned) [Example 14b]",–,≧9.0
"C[C@@](CN)(C[C@@H](Cc1ccc(-c2cc(Cl)ccc2F)cc1)NC(=O)c1cnn[nH]1)C(=O)O [Example 2, (2S,4R)-2-Aminomethyl-5-(5′-chloro-2′-fluorobiphenyl-4-yl)-2-methyl-4-[(3H-[1,2,3]triazole-4-carbonyl)amino]pentanoic Acid]",≤ 1 nM,–
"C[C@@](CN)(C[C@@H](Cc1ccc(-c2cc(Cl)ccc2F)cc1)NC(=O)c1ccn(C(F)F)n1)C(=O)O [Example 3, (2S,4R)-2-Aminomethyl-5-(5′-chloro-2′-fluorobiphenyl-4-yl)-4-[(1-difluoromethyl-1H-pyrazole-3-carbonyl)amino]-2-methylpentanoic Acid]",1.26 to 3.16 nM,–
"CC(=O)c1cc(C(=O)N[C@H](Cc2ccc(-c3cc(Cl)ccc3F)cc2)C[C@@](C)(CN)C(=O)O)[nH]n1 [Example 4-1, (2S,4R)-4-[(5-Acetyl-2H-pyrazole-3-carbonyl)-amino]-2-aminomethyl-5-(5′-chloro-2′-fluorobiphenyl-4-yl)-2-methylpentanoic acid]",3.98 to 10 nM,–
"Cc1cnc(C(=O)N[C@H](Cc2ccc(-c3cc(Cl)ccc3F)cc2)C[C@@](C)(CN)C(=O)O)o1 [Example 4-2, (2S,4R)-2-Aminomethyl-5-(5′-chloro-2′-fluorobiphenyl-4-yl)-2-methyl-4-[(5-methyl-oxazole-2-carbonyl)amino]pentanoic acid]",1.26 to 3.16 nM,–
"C[C@](C[C@@H](Cc1ccc(-c2cc(Cl)ccc2F)cc1)NC(=O)c1c[nH]nn1)(C(N)=O)C(=O)O [Example 5, (2S,4R)-2-Carbamoyl-5-(5′-chloro-2′-fluorobiphenyl-4-yl)-2-methyl-4-[(1H-[1,2,3]triazole-4-carbonyl)amino]pentanoic Acid]",≤ 1 nM,–
"CC(C[C@@H](Cc1ccc(-c2cc(Cl)ccc2F)cc1)NC(=O)c1c[nH]nn1)(C(=O)O)C(=O)O [Example 6, 2-{(R)-3-(5′-Chloro-2′-fluorobiphenyl-4-yl)-2-[(1H-[1,2,3]triazole-4-carbonyl)amino]propyl}-2-methylmalonic Acid]",≤ 1 nM,–
"COC[C@](C)(C[C@@H](Cc1ccc(-c2cc(Cl)ccc2F)cc1)NC(=O)c1noc(=O)[nH]1)C(=O)O [Example 7, (2S,4R)-5-(5′-Chloro-2′-fluorobiphenyl-4-yl)-2-methoxymethyl-2-methyl-4-[(5-oxo-4,5-dihydro-[1,2,4]oxadiazole-3-carbonyl)amino]pentanoic Acid]",≤ 1 nM,–
"COC[C@](C)(C[C@@H](Cc1ccc(-c2cc(Cl)ccc2F)cc1)NC(=O)c1ncc(C)o1)C(=O)O [Example 8-1, (2S,4R)-5-(5′-Chloro-2′-fluorobiphenyl-4-yl)-2-methoxymethyl-2-methyl-4-[(5-methyloxazole-2-carbonyl)amino]pentanoic acid]",≤ 1 nM,–
"COC[C@](C)(C[C@@H](Cc1ccc(-c2cc(Cl)ccc2F)cc1)NC(=O)c1coc(C2CC2)n1)C(=O)O [Example 8-2, (2S,4R)-5-(5′-Chloro-2′-fluorobiphenyl-4-yl)-4-[(2-cyclopropyloxazole-4-carbonyl)amino]-2-methoxymethyl-2-methylpentanoic acid]",1.26 to 3.16 nM,–
"COC[C@](C)(C[C@@H](Cc1ccc(-c2cc(Cl)ccc2F)cc1)NC(=O)c1ccc(Cl)cn1)C(=O)O [Example 8-3, (2S,4R)-5-(5′-Chloro-2′-fluorobiphenyl-4-yl)-4-[(5-chloropyridine-2-carbonyl)amino]-2-methoxymethyl-2-methylpentanoic acid]",1.26 to 3.16 nM,–
"COC[C@](C)(C[C@@H](Cc1ccc(-c2cc(Cl)ccc2F)cc1)NC(=O)c1ncccn1)C(=O)O [Example 8-4, (2S,4R)-5-(5′-Chloro-2′-fluorobiphenyl-4-yl)-2-methoxymethyl-2-methyl-4-[(pyrimidine-2-carbonyl)amino]pentanoic acid]",≤ 1 nM,–
"COC[C@](C)(C[C@@H](Cc1ccc(-c2cc(Cl)ccc2F)cc1)NC(=O)c1ccc(C(F)(F)F)cn1)C(=O)O [Example 8-5, (2S,4R)-5-(5′-Chloro-2′-fluorobiphenyl-4-yl)-2-methoxymethyl-2-methyl-4-[(5-trifluoromethylpyridine-2-carbonyl)amino]pentanoic acid]",≤ 1 nM,–
"COC[C@](C)(C[C@@H](Cc1ccc(-c2cc(Cl)ccc2F)cc1)NC(=O)c1ncco1)C(=O)O [Example 8-6, (2S,4R)-5-(5′-Chloro-2′-fluorobiphenyl-4-yl)-2-methoxymethyl-2-methyl-4-[(oxazole-2-carbonyl)amino]pentanoic acid]",≤ 1 nM,–
"COC[C@](C)(C[C@@H](Cc1ccc(-c2cc(Cl)ccc2F)cc1)NC(=O)c1nc[nH]n1)C(=O)O [Example 8-7, (2S,4R)-5-(5′-Chloro-2′-fluorobiphenyl-4-yl)-2-methoxymethyl-2-methyl-4-[(1H-[1,2,4]triazole-3-carbonyl)amino]pentanoic acid]",1.26 to 3.16 nM,–
"CCOn1cc(C(=O)N[C@H](Cc2ccc(-c3cc(Cl)ccc3F)cc2)C[C@@](C)(COC)C(=O)O)nn1 [Example 8-8, (2S,4R)-5-(5′-Chloro-2′-fluorobiphenyl-4-yl)-4-[(1-ethoxy-1H-[1,2,3]triazole-4-carbonyl)amino]-2-methoxymethyl-2-methylpentanoic acid]",≤ 1 nM,–
"COC[C@](C)(C[C@@H](Cc1ccc(-c2cc(Cl)ccc2F)cc1)NC(=O)c1cn(OC)nn1)C(=O)O [Example 8-9, (2S,4R)-5-(5′-Chloro-2′-fluorobiphenyl-4-yl)-2-methoxymethyl-4-[(1-methoxy-1H-[1,2,3]triazole-4-carbonyl)amino]-2-methylpentanoic acid]",1.26 to 3.16 nM,–
"COC[C@](C)(C[C@@H](Cc1ccc(-c2cc(Cl)ccc2F)cc1)NC(=O)c1cn(CCO)nn1)C(=O)O [Example 8-10, (2S,4R)-5-(5′-Chloro-2′-fluorobiphenyl-4-yl)-4-{[1-(2-hydroxyethyl)-1H-[1,2,3]triazole-4-carbonyl]amino}-2-methoxymethyl-2-methylpentanoic acid]",1.26 to 3.16 nM,–
"CCOC[C@](C)(C[C@@H](Cc1ccc(-c2cc(Cl)ccc2F)cc1)NC(=O)c1coc(C2CC2)n1)C(=O)O [Example 10, (2S,4R)-5-(5′-Chloro-2′-fluorobiphenyl-4-yl)-4-[(2-cyclopropyoxazole-4-carbonyl)amino]-2-ethoxymethyl-2-methylpentanoic Acid]",1.26 to 3.16 nM,–

# More lines, now with the values ahead:
Ki,pKi,SMILES
–,≧9.0,"CCCC(CO)(C[C@@H](Cc1ccc(-c2cc(Cl)ccc2F)cc1)NC(=O)c1cnn[nH]1)C(=O)O (single isomer, unassigned) [Example 15b]"
1.26 to 3.16 nM,–,"O=C(N[C@H](Cc1ccc(-c2cc(Cl)ccc2F)cc1)CC(CO)(CCO)C(=O)O)c1cnn[nH]1 (single isomer, unassigned) [Example 16a]"
12.6 to 31.6 nM,–,"O=C(N[C@H](Cc1ccc(-c2cc(Cl)ccc2F)cc1)CC(CO)(CCO)C(=O)O)c1cnn[nH]1 (single isomer, unassigned) [Example 16b]"
≤ 1 nM,–,"C=CCC(CO)(C[C@@H](Cc1ccc(-c2cc(Cl)ccc2F)cc1)NC(=O)c1cnn[nH]1)C(=O)O (single isomer, unassigned) [Example 19a]"
–,≧9.0,"O=C(N[C@H](Cc1ccc(-c2cc(Cl)ccc2F)cc1)CC1(C(=O)O)CCOC1)c1cnn[nH]1 (single isomer, unassigned) [Example 20b]"
≤ 1 nM,–,"O=C(N[C@H](Cc1ccc(-c2cc(Cl)ccc2F)cc1)CC1(C(=O)O)CCNC1)c1cnn[nH]1 (single isomer, unassigned) [Example 21a]"
≤ 1 nM,–,"CC(=O)N1CCC(C[C@@H](Cc2ccc(-c3cc(Cl)ccc3F)cc2)NC(=O)c2cnn[nH]2)(C(=O)O)C1 (single isomer, unassigned) [Example 22a]"
≤ 1 nM,–,"CCC(C#N)(C[C@@H](Cc1ccc(-c2cc(Cl)ccc2F)cc1)NC(=O)c1cnn[nH]1)C(=O)O (single isomer, unassigned) [Example 23a]"
126 to 316 nM,–,"CCC(C#N)(C[C@@H](Cc1ccc(-c2cc(Cl)ccc2F)cc1)NC(=O)c1cnn[nH]1)C(=O)O (single isomer, unassigned) [Example 23b]"
